According to patent publication US20130331314A1, “PHARMACEUTICAL COMPOSITION FOR TREATING HCV INFECTIONS” (Hoffmann-La Roche Inc., priority 2010, published 2013):

Test: Biopharmaceutical Classification System class
Format: physicochemical
Conditions: solubility and permeability limited oral absorption

With CC(C)(C)OC(=O)N[C@H]1CCCCC/C=C\[C@@H]2C[C@@]2(C(=O)NS(=O)(=O)C2CC2)NC(=O)[C@@H]2C[C@@H](OC(=O)N3Cc4cccc(F)c4C3)CN2C1=O [Compound I, 4-fluoro-1,3-dihydro-isoindole-2-carboxylic acid (Z)-(1S,4R,6S,14S, 18R)-14-tert-butoxycarbonylamino-4-cyclopropanesulfonylaminocarbonyl-2,15-dioxo-3,16-diaza-tricyclo[14.3.0.0^4,6]nonadec-7-en-18-yl ester] the “Biopharmaceutical Classification System class” value was “Class 4”.
